Data from publication PMC10797667 (ACS catalysis, 2020).

Experiments:
[1] = target: ANT4' (aminoglycoside nucleotidyl transferase 4') (Staphylococcus aureus, UniProt P05057, E52D/T130K); assay: biochemical
[2] = target: ANT4' (aminoglycoside nucleotidyl transferase 4') (Staphylococcus aureus, UniProt P05057); assay: X-ray crystal structure; assay type: binding; conditions: binary complex, 0.1-0.2 M MgCl2, pH 7-8; active site
[3] = target: ANT4' (aminoglycoside nucleotidyl transferase 4') (Staphylococcus aureus, UniProt P05057, T130K); assay: biochemical

SMILES: NC[C@@H]1O[C@H](O[C@H]2[C@@H](O)[C@H](O[C@@H]3[C@@H](O)[C@H](N)C[C@H](N)[C@H]3O[C@H]3O[C@H](CN)[C@@H](O)[C@H](O)[C@H]3N)O[C@@H]2CO)[C@H](N)[C@@H](O)[C@@H]1O [neomycin]
- Kd [1]: 0.87 ± 0.08 µM
- X-ray crystal structure [2]: A binary neomycin complex was also determined in the wild-type ANT4’ enzyme
- Kd [3]: 0.34 ± 0.03 µM
